Experimental data published in patent US20240092761A1, “QUINAZOLINE COMPOUNDS AND METHODS OF USE” (IAMBIC THERAPEUTICS, INC., priority 2022, published 2024).
pIC50: −log10 of the molar value.

How the values were obtained:
[1] = biological target: CDK2/Cyclin E1 full length (Homo sapiens (Human), UniProt P24941); test: CDK2/Cyclin E1 Full Length ADP-Glo Kinase Assay; assay type: biochemical; details: 20 uM ATP, read-out: CDK2/ CyclinE1 IC50
Summary of the method: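 Full-length human CDK2/Cyclin E1 (0.328 nM) pre-incubated 30 min with inhibitor at RT, then reacted 90 min at RT with 20 uM ATP (Km 64.78 uM) and 0.75 uM substrate in pH 7.5 HEPES, 2% DMSO. ADP measured by ADP-Glo luminescence; IC50 from 4-parameter fit of fractional velocity.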

CDK6/Cyclin D3 = CDK6/Cyclin D3 (Homo sapiens (Human), UniProt Q00534); test: CDK6/Cyclin D3 ADP-Glo Kinase Assay; assay type: biochemical; details: 100 uM ATP, read-out: CDK6/ CyclinD3 IC50
CDK6/Cyclin D3, sequence (Q00534 whole entry): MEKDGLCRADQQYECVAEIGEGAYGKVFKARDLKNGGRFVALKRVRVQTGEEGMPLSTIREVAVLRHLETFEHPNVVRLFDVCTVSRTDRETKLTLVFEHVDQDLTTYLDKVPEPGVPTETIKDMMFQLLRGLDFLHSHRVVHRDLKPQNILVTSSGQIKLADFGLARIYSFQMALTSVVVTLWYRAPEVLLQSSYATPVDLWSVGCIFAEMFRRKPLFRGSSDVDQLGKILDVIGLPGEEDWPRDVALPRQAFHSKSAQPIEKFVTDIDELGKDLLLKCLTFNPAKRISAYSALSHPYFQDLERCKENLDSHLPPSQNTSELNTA
CDK6/Cyclin D3, sequence (P30281 whole entry partner): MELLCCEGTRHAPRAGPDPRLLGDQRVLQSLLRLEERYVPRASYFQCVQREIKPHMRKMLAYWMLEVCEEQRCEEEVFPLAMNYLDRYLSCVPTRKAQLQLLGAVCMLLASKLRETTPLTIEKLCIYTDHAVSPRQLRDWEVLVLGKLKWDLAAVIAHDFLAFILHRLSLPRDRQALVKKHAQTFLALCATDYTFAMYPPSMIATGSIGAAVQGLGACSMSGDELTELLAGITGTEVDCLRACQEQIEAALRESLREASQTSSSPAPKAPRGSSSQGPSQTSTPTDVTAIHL
Summary of the method: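 Recombinant human CDK6/Cyclin D3 pre-incubated 30 min with inhibitor at room temperature, then reaction started with ATP/substrate and run 90 min at room temperature. ADP formed detected by ADP-Glo luminescence; IC50 from a 4-parameter fit of fractional velocity versus inhibitor concentration.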

CDK1/Cyclin B1 = CDK1/Cyclin B1 (Homo sapiens (Human), UniProt P06493); test: CDK1/Cyclin B1 ADP-Glo Kinase Assay; assay type: biochemical; details: 80 uM ATP
CDK1/Cyclin B1, sequence (P06493 whole entry): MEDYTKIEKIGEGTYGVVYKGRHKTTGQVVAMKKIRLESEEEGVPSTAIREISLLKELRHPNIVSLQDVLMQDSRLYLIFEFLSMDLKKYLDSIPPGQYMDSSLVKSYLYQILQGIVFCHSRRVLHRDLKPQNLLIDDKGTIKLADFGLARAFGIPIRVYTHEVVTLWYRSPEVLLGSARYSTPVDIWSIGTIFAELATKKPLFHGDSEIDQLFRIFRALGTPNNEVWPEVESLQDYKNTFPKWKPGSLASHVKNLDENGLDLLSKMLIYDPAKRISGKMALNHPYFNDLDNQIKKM
CDK1/Cyclin B1, sequence (P14635 whole entry partner): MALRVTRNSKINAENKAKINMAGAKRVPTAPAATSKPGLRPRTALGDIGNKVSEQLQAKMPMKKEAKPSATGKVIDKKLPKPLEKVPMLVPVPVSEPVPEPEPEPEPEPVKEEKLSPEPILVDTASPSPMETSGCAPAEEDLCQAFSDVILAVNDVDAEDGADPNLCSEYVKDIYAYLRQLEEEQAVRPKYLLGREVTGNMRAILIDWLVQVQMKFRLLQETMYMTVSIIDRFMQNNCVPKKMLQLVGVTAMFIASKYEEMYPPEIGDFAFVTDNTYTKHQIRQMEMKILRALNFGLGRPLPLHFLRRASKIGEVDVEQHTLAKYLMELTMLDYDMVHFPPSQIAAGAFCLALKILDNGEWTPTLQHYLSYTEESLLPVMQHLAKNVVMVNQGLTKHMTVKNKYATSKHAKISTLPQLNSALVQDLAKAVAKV
Summary of the method: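 CDK1/cyclin B1 (4.917 nM) preincubated 30 min with inhibitor (2% DMSO), then 80 µM ATP (Km 78.6 µM) and 0.75 µM substrate added; 90 min, room temperature, pH 7.5. ADP measured by ADP-Glo luminescence; IC50 from 4-parameter fit.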

MCF-7 cells = test: Cell Growth Inhibition, MCF-7 (CellTiterGlo, 6 days); assay type: cell-based; details: Homo sapiens, MCF7, 144 h; MCF-7, 6-day treatment, CellTiterGlo 2.0
Summary of the method: (§1)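 MCF-7 and OVCAR-3 cells (RPMI, 10% FBS) were seeded at 500 cells/well onto compound, typically 10–10,000 nM in half-log dilutions. Growth proceeded 6 days at 37 °C, then CellTiterGlo luminescence was read. % inhibition was taken versus control, and IC50 came from a four-parameter variable-slope fit.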

OVCAR-3 cells = test: Cell Growth Inhibition, OVCAR-3 (CellTiterGlo, 6 days); assay type: cell-based; details: Homo sapiens, 144 h; OVCAR-3, 6-day treatment, CellTiterGlo 2.0
Summary of the method: as §1

CDK4/Cyclin D1 = CDK4/Cyclin D1 (Homo sapiens (Human), UniProt P11802); test: CDK4/Cyclin D1 CHEF Assay (AQT0258 peptide); assay type: biochemical; details: 200 uM ATP, read-out: CDK4/ CyclinD1 AQT IC50
CDK4/Cyclin D1, sequence (P11802 whole entry): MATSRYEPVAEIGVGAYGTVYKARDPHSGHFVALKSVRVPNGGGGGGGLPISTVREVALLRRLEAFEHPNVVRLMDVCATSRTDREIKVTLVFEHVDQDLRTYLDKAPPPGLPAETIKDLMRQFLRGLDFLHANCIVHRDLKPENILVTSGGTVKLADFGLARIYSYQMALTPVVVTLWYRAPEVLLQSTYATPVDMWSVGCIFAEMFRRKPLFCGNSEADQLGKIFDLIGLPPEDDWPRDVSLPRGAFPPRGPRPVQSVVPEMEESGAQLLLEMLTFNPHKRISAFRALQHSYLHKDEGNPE
CDK4/Cyclin D1, sequence (P24385 whole entry partner): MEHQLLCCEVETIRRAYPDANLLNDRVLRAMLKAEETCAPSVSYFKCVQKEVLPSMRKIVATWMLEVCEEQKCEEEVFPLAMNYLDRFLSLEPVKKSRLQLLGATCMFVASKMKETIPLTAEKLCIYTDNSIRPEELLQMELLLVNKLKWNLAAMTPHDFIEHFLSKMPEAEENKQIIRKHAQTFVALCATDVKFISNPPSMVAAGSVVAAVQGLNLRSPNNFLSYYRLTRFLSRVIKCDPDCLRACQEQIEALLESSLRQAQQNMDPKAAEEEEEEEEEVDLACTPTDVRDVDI
Summary of the method: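 CDK4/Cyclin D1 (2.5 nM) phosphorylating 10 uM Sox-labelled peptide AQT0258 with 200 uM ATP (Km 195.2 uM), 10 mM MgCl2, 2% DMSO, 54 mM HEPES pH 7.5. Enzyme and inhibitor pre-incubated 30 min, reaction 3 hrs at 22° C.; CHEF fluorescence (ex 360/em 485 nm), IC50 from fractional velocity, 4-parameter fit.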

Row | SMILES | pIC50 [1] | pIC50 (CDK6/Cyclin D3) | pIC50 (CDK1/Cyclin B1) | pIC50 (MCF-7 cells) | pIC50 (OVCAR-3 cells) | pIC50 (CDK4/Cyclin D1)
1 | CN1CC2(CCN(c3cc(C(F)F)cc4cnc(NC5CCN(S(=O)(=O)C6CC6)CC5)nc34)C2)C1 [Example 77, N-(1-(cyclopropylsulfonyl)piperidin-4-yl)-6-(difluoromethyl)-8-(2-methyl-2,6-diazaspiro[3.4]octan-6-yl)quinazolin-2-amine] | > 6.70 | > 6.70 | > 6.70 | 6.30 to 6.70 | 5.70 to 6.30 | > 6.70
2 | O=S(=O)(C1CC1)N1CCC(Nc2ncc3cc(C(F)F)cc(N4CC5(C4)CN(C4CC4)C5)c3n2)CC1 [Example 78, 8-(6-cyclopropyl-2,6-diazaspiro[3.3]heptan-2-yl)-N-(1-(cyclopropylsulfonyl)piperidin-4-yl)-6-(difluoromethyl)quinazolin-2-amine] | > 6.70 | > 6.70 | 6.30 to 6.70 | 5.70 to 6.30 | < 5.70 | > 6.70
3 | CN1CCc2cc(Nc3ncc4cc(C(F)F)cc(N5CC6(C5)CN(C5CC5)C6)c4n3)ccc2C1 [Example 79, 8-(6-cyclopropyl-2,6-diazaspiro[3.3]heptan-2-yl)-6-(difluoromethyl)-N-(2-methyl-1,2,3,4-tetrahydroisoquinolin-6-yl)quinazolin-2-amine] | 6.30 to 6.70 | > 6.70 | < 5.70 | 5.70 to 6.30 | 5.70 to 6.30 | > 6.70
4 | O=S(=O)(C1CC1)N1CCC(Nc2ncc3cc(C(F)F)cc(N4CC5(CCCNC5)C4)c3n2)CC1 [Example 80, N-(1-(cyclopropylsulfonyl)piperidin-4-yl)-6-(difluoromethyl)-8-(2,6-diazaspiro[3.5]nonan-2-yl)quinazolin-2-amine] | > 6.70 | > 6.70 | > 6.70 | 6.30 to 6.70 | 6.30 to 6.70 | > 6.70
5 | CN1CCC2(C1)CN(c1cc(C(F)F)cc3cnc(NC4CCN(S(=O)(=O)C5CC5)CC4)nc13)C2 [Example 81, N-(1-(cyclopropylsulfonyl)piperidin-4-yl)-6-(difluoromethyl)-8-(6-methyl-2,6-diazaspiro[3.4]octan-2-yl)quinazolin-2-amine] | > 6.70 | > 6.70 | 6.30 to 6.70 | 5.70 to 6.30 | 5.70 to 6.30 | > 6.70
6 | FC(F)c1cc(N2CC3(CCNC3)C2)c2nc(Nc3ccc4c(c3)CN(C3CC3)C4)ncc2c1 [Example 82, N-(2-cyclopropylisoindolin-5-yl)-6-(difluoromethyl)-8-(2,6-diazaspiro[3.4]octan-2-yl)quinazolin-2-amine] | > 6.70 | > 6.70 | 5.70 to 6.30 | 5.70 to 6.30 | < 5.70 | > 6.70
7 | CN1CC2(CCN(c3cc(C(F)F)cc4cnc(NC5CCN(S(=O)(=O)C6(C)CC6)CC5)nc34)C2)C1 [Example 83, 6-(difluoromethyl)-8-(2-methyl-2,6-diazaspiro[3.4]octan-6-yl)-N-(1-((1-methylcyclopropyl)sulfonyl)piperidin-4-yl)quinazolin-2-amine] | > 6.70 | > 6.70 | 6.30 to 6.70 | 5.70 to 6.30 | 5.70 to 6.30 | > 6.70
8 | O=S(=O)(CC1CCC1)N1CCC(Nc2ncc3cc(C(F)F)cc(N4CCC5(CNC5)C4)c3n2)CC1 [Example 84, N-(1-((cyclobutylmethyl)sulfonyl)piperidin-4-yl)-6-(difluoromethyl)-8-(2,6-diazaspiro[3.4]octan-6-yl)quinazolin-2-amine] | > 6.70 | > 6.70 | 6.30 to 6.70 | 5.70 to 6.30 | 5.70 to 6.30 | > 6.70
9 | O=S(=O)(CC1CC1)N1CCC(Nc2ncc3cc(C(F)F)cc(N4CC5(CCNC5)C4)c3n2)CC1 [Example 85, N-(1-((cyclopropylmethyl)sulfonyl)piperidin-4-yl)-6-(difluoromethyl)-8-(2,6-diazaspiro[3.4]octan-2-yl)quinazolin-2-amine] | > 6.70 | > 6.70 | > 6.70 | 6.30 to 6.70 | 6.30 to 6.70 | > 6.70
10 | O=S(=O)(CC1CCC1)N1CCC(Nc2ncc3cc(C(F)F)cc(N4CC5(CCNC5)C4)c3n2)CC1 [Example 86, N-(1-((cyclobutylmethyl)sulfonyl)piperidin-4-yl)-6-(difluoromethyl)-8-(2,6-diazaspiro[3.4]octan-2-yl)quinazolin-2-amine] | > 6.70 | > 6.70 | > 6.70 | 5.70 to 6.30 | 5.70 to 6.30 | > 6.70
11 | CC1(S(=O)(=O)N2CCC(Nc3ncc4cc(C(F)F)cc(N5CC6(CCNC6)C5)c4n3)CC2)CC1 [Example 87, 6-(difluoromethyl)-N-(1-((1-methylcyclopropyl)sulfonyl)piperidin-4-yl)-8-(2,6-diazaspiro[3.4]octan-2-yl)quinazolin-2-amine] | > 6.70 | > 6.70 | > 6.70 | 5.70 to 6.30 | 6.30 to 6.70 | > 6.70
12 | O=S(=O)(N1CCC(Nc2ncc3cc(C(F)F)cc(N4CCC5(CNC5)C4)c3n2)CC1)C1(C(F)F)CC1 [Example 88, 6-(difluoromethyl)-N-(1-((1-(difluoromethyl)cyclopropyl)sulfonyl)piperidin-4-yl)-8-(2,6-diazaspiro[3.4]octan-6-yl)quinazolin-2-amine] | > 6.70 | > 6.70 | > 6.70 | 6.30 to 6.70 | 6.30 to 6.70 | > 6.70
13 | COCCN1CC2(CC(c3cc(C(F)F)cc4cnc(NC5CCN(S(C)(=O)=O)CC5)nc34)C2)C1 [Example 89, 6-(difluoromethyl)-8-(2-(2-methoxyethyl)-2-azaspiro[3.3]heptan-6-yl)-N-(1-(methylsulfonyl)piperidin-4-yl)quinazolin-2-amine] | > 6.70 | > 6.70 | > 6.70 | 6.30 to 6.70 | > 6.70 | > 6.70
14 | O=S(=O)(C1CC1)N1CCC(Nc2ncc3cc(C(F)F)cc(C4CC5(C4)CN(CC(F)F)C5)c3n2)CC1 [Example 90, N-(1-(cyclopropylsulfonyl)piperidin-4-yl)-8-(2-(2,2-difluoroethyl)-2-azaspiro[3.3]heptan-6-yl)-6-(difluoromethyl)quinazolin-2-amine] | > 6.70 | > 6.70 | > 6.70 | 5.70 to 6.30 | 6.30 to 6.70 | > 6.70
15 | O=S(=O)(N1CCC(Nc2ncc3cc(C(F)F)cc(C4CC5(CCNC5)C4)c3n2)CC1)C1(C(F)F)CC1 (stereo not drawn) [Example 91, 6-(difluoromethyl)-N-(1-((1-(difluoromethyl)cyclopropyl)sulfonyl)piperidin-4-yl)-8-(6-azaspiro[3.4]octan-2-yl)quinazolin-2-amine] | > 6.70 | > 6.70 | > 6.70 | 6.30 to 6.70 | > 6.70 | > 6.70
16 | CS(=O)(=O)N1CCC(Nc2ncc3cc(C(F)F)cc(N4CC(F)(F)C5(CNC5)C4)c3n2)CC1 [Example 92, 8-(8,8-difluoro-2,6-diazaspiro[3.4]octan-6-yl)-6-(difluoromethyl)-N-(1-(methylsulfonyl)piperidin-4-yl)quinazolin-2-amine] | > 6.70 | > 6.70 | > 6.70 | 5.70 to 6.30 | 5.70 to 6.30 | > 6.70
